Several values for one entry are separate records, joined by “and”; a condition that tells them apart may be missing. Equal entries are not always repeated. Inconclusive results and toxic doses are left out. Rule for the calls: active = survival T/C of 150% or more; inactive = T/C below 125% in these data.
Test system: P388 leukemia ip, CD2F1 mice, survival T/C
Test: NCI In Vivo Anticancer Drug Screen. Data for tumor model P388 Leukemia (intraperitoneal) in CD2F1 (CDF1) mice
Conditions: endpoint: median survival time, higher = longer survival
Outline: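 Mice carrying the transplanted tumor received test compound or vehicle. Survival was recorded in each group, and the value is the treated-group measurement divided by that of the vehicle-treated control group.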

[1] = dose: 50.0 mg/kg/injection, schedule: Q01DX009 (ip), vehicle: saline with Tween-80
[2] = dose: 100.0 mg/kg/injection, schedule: Q01DX009 (ip), vehicle: saline with Tween-80
[3] = dose: 200.0 mg/kg/injection, schedule: Q01DX009 (ip), vehicle: saline with Tween-80
[4] = dose: 100.0 mg/kg/injection, schedule: Q01DX001 (ip), vehicle: saline with Tween-80
[5] = dose: 200.0 mg/kg/injection, schedule: Q01DX001 (ip), vehicle: saline with Tween-80
[6] = dose: 400.0 mg/kg/injection, schedule: Q01DX001 (ip), vehicle: saline with Tween-80

Measured: T/C

CCCCN(CCCC)c1nsc(N2CCOCC2)n1
inactive: [1] 94 % of control | [2] 100 % of control | [3] 108 % of control

CC1CC12OC(=O)N(c1cc(Cl)cc(Cl)c1)C2=O (stereo unspecified)
inactive: dose: 50.0 mg/kg/injection, schedule: Q01DX005 (ip), vehicle: saline + Tween-80 + alcohol 98 % of control | dose: 100.0 mg/kg/injection, schedule: Q01DX005 (ip), vehicle: saline + Tween-80 + alcohol 100 % of control | dose: 200.0 mg/kg/injection, schedule: Q01DX005 (ip), vehicle: saline + Tween-80 + alcohol 101 % of control

CC(C)C([N+](C)(C)C)P(=O)([O-])O (stereo unspecified)
inactive: [2] 100 % of control | [3] 90 % of control

COc1cc(C2c3cc4c(cc3OC3(O)COC(=O)C23)OCO4)cc(OC)c1OC (stereo unspecified)
inactive: dose: 60.0 mg/kg/injection, schedule: Q01DX005 (ip), vehicle: saline with Tween-80 88 % of control | dose: 120.0 mg/kg/injection, schedule: Q01DX005 (ip), vehicle: saline with Tween-80 91 % of control | dose: 240.0 mg/kg/injection, schedule: Q01DX005 (ip), vehicle: saline with Tween-80 86 % of control

Nc1ccc(S(=O)(=O)NCCO)cc1[N+](=O)[O-]
inactive: [4] 95 % of control | [5] 100 % of control | [6] 100 % of control

CCOC(=O)c1cc2c(cc1O)C1CC=C(C)[C@@H]3CCO[C@](OC)(C2)[C@]13C(=O)OC (stereo partly specified)
inactive: dose: 6.25 mg/kg/injection, schedule: Q01DX001 (ip), vehicle: saline with Tween-80 106 % of control | dose: 12.5 mg/kg/injection, schedule: Q01DX001 (ip), vehicle: saline with Tween-80 101 % of control | dose: 25.0 mg/kg/injection, schedule: Q01DX001 (ip), vehicle: saline with Tween-80 111 % of control | dose: 50.0 mg/kg/injection, schedule: Q01DX001 (ip), vehicle: saline with Tween-80 100 % of control

ClC(Cl)(Cl)C1=NC2=C(Br)C=C(Br)C3=NC(C(Br)(Br)Br)=NC(=N1)N32
inactive: dose: 60.0 mg/kg/injection, schedule: Q01DX005 (ip), vehicle: Klucel + Tween-80 105 % of control | dose: 120.0 mg/kg/injection, schedule: Q01DX005 (ip), vehicle: Klucel + Tween-80 110 % of control

CCCCCCCCCC#CC(=O)O
inactive: [1] 95 % of control | [2] 110 % of control | [3] 89 % of control

CC1CCOC(C)O1 (stereo unspecified)
inactive: dose: 100.0 mg/kg/injection, schedule: Q04DX003 (ip), vehicle: saline 100 % of control | dose: 200.0 mg/kg/injection, schedule: Q04DX003 (ip), vehicle: saline 104 % of control | dose: 400.0 mg/kg/injection, schedule: Q04DX003 (ip), vehicle: saline 101 % of control

CCCCn1c(Cl)c(/C=N\Nc2ccccc2[N+](=O)[O-])c2ccccc21
inactive: [4] 93 % of control | [5] 90 % of control | [6] 93 % of control

O=CNNC(=O)C(Cl)Cl
inactive: dose: 50.0 mg/kg/injection, schedule: Q01DX009 (ip), vehicle: Klucel (hydroxypropylcellulose) (HPC) 107 % of control | dose: 100.0 mg/kg/injection, schedule: Q01DX009 (ip), vehicle: Klucel (hydroxypropylcellulose) (HPC) 107 % of control | dose: 200.0 mg/kg/injection, schedule: Q01DX009 (ip), vehicle: Klucel (hydroxypropylcellulose) (HPC) 112 % of control

CC1(C)OCC(C2OC(C)(C)OC2C2OC(O)C=CC2=O)O1 (stereo unspecified)
inactive: dose: 0.78 mg/kg/injection, schedule: Q01DX009 (ip), vehicle: distilled water + Tween-80 108 % of control and 103 % of control | dose: 1.56 mg/kg/injection, schedule: Q01DX009 (ip), vehicle: distilled water + Tween-80 116 % of control and 103 % of control | dose: 3.13 mg/kg/injection, schedule: Q01DX009 (ip), vehicle: distilled water + Tween-80 100 % of control and 94 % of control | dose: 6.25 mg/kg/injection, schedule: Q01DX009 (ip), vehicle: distilled water + Tween-80 100 % of control

CC(C)NCC(O)COc1cccc2ccccc12 (stereo unspecified)
inactive: dose: 4.0 mg/kg/injection, schedule: Q01DX009 (ip), vehicle: Klucel (hydroxypropylcellulose) (HPC) 97 % of control | dose: 8.0 mg/kg/injection, schedule: Q01DX009 (ip), vehicle: Klucel (hydroxypropylcellulose) (HPC) 98 % of control | dose: 16.0 mg/kg/injection, schedule: Q01DX009 (ip), vehicle: Klucel (hydroxypropylcellulose) (HPC) 100 % of control | dose: 32.0 mg/kg/injection, schedule: Q01DX009 (ip), vehicle: Klucel (hydroxypropylcellulose) (HPC) 95 % of control | dose: 64.0 mg/kg/injection, schedule: Q01DX009 (ip), vehicle: Klucel (hydroxypropylcellulose) (HPC) 113 % of control

— PubChem BioAssay AID330 (DTP/NCI, 2004)
